Test system: carrageenin edema
Experiment: Carrageenin edema test
Type: in vivo, Sprague-Dawley rats
Conditions: rat hind paw, 10 mg/kg oral, 60 minutes prior to carrageenin (0.1 ml, 1%); edema weight 3 hours after injection
Method: Five Sprague-Dawley rats were fasted for 24 hours and submitted to the study. First, 0.1 ml of carrageenin (1%) was subcutaneously injected into the paw of the right hind limb and after 3 hours the rat was sacrificed. The untreated limb and the edematous limb were respectively incised off at the junction of the tibia and weighed. The difference in weight between the edematous limb and the untreated limb was taken as the weight of the edema.
The test compound was orally administered 60 minutes prior to the administration of carrageenin and the swelling in the treated limb was compared with that in the control limb. The test compound was administered in a dose of 10 mg/kg.

## CN1C(C(=O)Nc2cccccc2=O)=C(O)c2ccccc2S1(=O)=O [Example 1, 4-hydroxy-2-methyl-N-(1-oxo-2,4,6-cycloheptatrien-2-yl)-2H-1,2-benzothiazine-3-carboxamide 1,1-dioxide]
  % Inhibition of carrageenin edema: 51.4%
